# According to patent US8962853B2, “Chemical probe compounds that become fluorescent upon reduction, and methods for their use” (Life Technologies Corporation, priority 2005, dated 2015):
# Experiments:
# S. aureus [1] = assay: Electron transport system (ETS) inhibition assay; assay type: cell-based, Staphylococcus aureus; settings: for fluorescence signal of stain, S. aureus: no ETS inhibitor (Untreated)
# Protocol: (§1) S. aureus and E. coli were treated with known inhibitors of the electron transport system (ETS) to determine if reductase moieties in the ETS would reduce exemplary stain compounds. […] The bacteria were diluted in PBS buffer and treated with the various ETS inhibitors, stained with 500 nM stain compound (18) for 10 minutes, and then analyzed by flow cytometry using a Becton Dickinson FACSCalibur™ instrument (Becton, Dickinson and Company; Franklin Lakes, N.J.) containing a 488 nm argon ion laser.
# (§2) Stain compound (19) was assayed according to the procedure outlined in Example 23.
# (§3) Stain compound (22) was assayed according to the procedure outlined in Example 23.
# (§4) Stain compound (24) was assayed according to the procedure outlined in Example 23.
# E. coli [2] = assay: Electron transport system (ETS) inhibition assay; assay type: cell-based, Escherichia coli; settings: for fluorescence signal of stain, E. coli: no ETS inhibitor (Untreated)
# Protocol: as §1, §2, §3, §4
# E. coli [3] = assay: Staining of bacteria, flow cytometry; assay type: cell-based, Escherichia coli; settings: 500 nM, 10 minutes
# Protocol: (§5) Gram-positive and Gram-negative bacteria were labeled using compound (18). S. aureus and B. subtilis were used as examples of Gram-positive bacteria, and E. coli and K. pneumoniae were used as examples of Gram-negative bacteria. Cells were diluted in buffer to about 10^6 cells/mL. The bacteria were contacted with compound 18 (500 nM) for 10 minutes in Hank's Balanced Salt Solution (HBSS) or various other buffers such as PBS. The samples were analyzed by flow cytometry using a Becton Dickinson FACScan™ instrument (Becton, Dickinson and Company; Franklin Lakes, N.J.) containing a 488 nm argon ion laser. Cells were analyzed directly without washing, or optionally, were fixed with 1-4% formaldehyde prior to flow cytometric analysis.
# S. aureus [4] = assay: Stability of fluorescence; assay type: cell-based, Staphylococcus aureus; settings: monitored for one hour
# Protocol: (§6) Compound (18) was contacted with cultures of S. aureus, B. subtilis, E. coli, and K. pneumoniae. The fluorescence of the samples were monitored for one hour. The signal developed very quickly for S. aureus and B. subtilis, and stabilized within 10 minutes. The signal was stable for at least one hour (FIG. 6).
# B. subtilis [5] = assay: Titration series on cultured bacteria; assay type: cell-based, Bacillus subtilis; settings: titration 10 nM to 1 uM
# Protocol: (§7) The x-axis represents the concentration of compound (18) in nM, while the y-axis represents FL1 GeoMean fluorescence.
# (§8) A titration series was performed on cultured bacteria. Chemical compound (18) was used at concentrations ranging from 10 nM to 1 uM for S. aureus and B. subtilis (FIG. 2), and 500 nM to 4 uM for E. coli and K. pneumoniae (FIG. 3).
# S. aureus [6] = assay: Titration series on cultured bacteria; assay type: cell-based, Staphylococcus aureus; settings: titration 10 nM to 1 uM
# Protocol: as §7, §8
# S. aureus [7] = assay: Fixation assays (compatibility with fixed samples); assay type: cell-based, Staphylococcus aureus; settings: 100 nM, 10 minutes, HBSS
# Protocol: A culture of S. aureus was grown to log-phase, and washed and diluted in HBSS to 10^6 cells per mL. Samples of 1 mL each were aliquotted to six flow cytometry tubes. CCCP was added to three of the samples at a final concentration of 10 μM. The samples were incubated for 1-5 minutes. Compound (18) was added at a final concentration of 100 nM, and the samples were allowed to sit for 10 minutes. The +/− CCCP tubes were divided into two sets: one set received 1 mL of 100% ethanol, and the other set received 100 µL of 10% formaldehyde (methanol-free). The samples were analyzed using a Becton Dickinson FACSCalibur as described in Example 23.
# K. pneumoniae [8] = assay: Staining of bacteria, flow cytometry; assay type: cell-based, Klebsiella pneumoniae; settings: 500 nM, 10 minutes
# Protocol: as §5
# S. aureus [9] = assay: Staining of bacteria, flow cytometry; assay type: cell-based, Staphylococcus aureus; settings: 500 nM, 10 minutes
# Protocol: as §5
# B. subtilis [10] = assay: Staining of bacteria, flow cytometry; assay type: cell-based, Bacillus subtilis; settings: 500 nM, 10 minutes
# Protocol: as §5
# B. subtilis [11] = assay: Stability of fluorescence; assay type: cell-based, Bacillus subtilis; settings: monitored for one hour
# Protocol: as §6
# E. coli [12] = assay: Titration series on cultured bacteria; assay type: cell-based, Escherichia coli; settings: titration 500 nM to 4 uM; Gram-negative organisms tested
# Protocol: as §7, §8
# K. pneumoniae [13] = assay: Titration series on cultured bacteria; assay type: cell-based, Klebsiella pneumoniae; settings: titration 500 nM to 4 uM; Gram-negative organisms tested
# Protocol: as §7, §8
# S. aureus [14] = assay: Time course treatments (growth and stain fluorescence); assay type: cell-based, Staphylococcus aureus; settings: compound present in broth culture medium
# Protocol: Control samples that were untreated were also prepared.
# Samples were taken once every hour for six hours and stained with 500 nM compound (18) for 10 minutes, then analyzed by flow cytometry using a Becton Dickinson FACSCalibur™ instrument (Becton, Dickinson and Company; Franklin Lakes, N.J.) containing a 488 nm argon ion laser. Not only did the treated cells not proliferate, but the signal from the stain in treated samples decreased once the cells entered ‘log-growth’ phase as compared to the untreated control.
# [15] = stained with compound (18) 500 nM, rotenone 1 mM, antimycin A 20 uM, azide 10 mM, CCCP 10 uM
# [16] = stain compound (18) 500 nM, 10 minutes, PBS
# [17] = buffer Sodium chloride + 10 mM glucose
molecule,measurement,setting,value
"N#CC(C#N)=NNc1cccc(Cl)c1 [CCCP, carbonyl cyanide m-chlorophenylhydrazone]","fluorescence signal after inhibitor treatment, S. aureus",S. aureus [1]; [15],4.19
same,"fluorescence signal after inhibitor treatment, S. aureus",S. aureus [1]; stained with compound (19),46.73
same,"fluorescence signal after inhibitor treatment, S. aureus",S. aureus [1]; stained with compound (22),240.61
same,"fluorescence signal after inhibitor treatment, S. aureus",S. aureus [1]; stained with compound (24),402.19
same,"fluorescence signal after inhibitor treatment, E. coli",E. coli [2]; [15],150.7
same,"fluorescence signal after inhibitor treatment, E. coli",E. coli [2]; stained with compound (19),12.59
same,"fluorescence signal after inhibitor treatment, E. coli",E. coli [2]; stained with compound (22),63.26
same,"fluorescence signal after inhibitor treatment, E. coli",E. coli [2]; stained with compound (24),152.7
CC1=C(C)C(=O)C(N2CCC(NC(=O)CCCN(C)C3=C/C(=C\c4sc5ccccc5[n+]4C)c4ccccc4N3c3ccccc3)CC2)=C(C)C1=O [Compound 18],"fluorescence signal of stain, S. aureus",S. aureus [1]; [16],351.91
same,FL1 GeoMean fluorescence,E. coli [3]; buffer HBSS,42.1
same,FL1 GeoMean fluorescence,E. coli [3]; buffer PBS + 1 mM EDTA,70.92
same,FL1 GeoMean fluorescence,E. coli [3]; buffer PBS + 0.01% Tween-20,44.48
same,FL1 GeoMean fluorescence,E. coli [3]; buffer PBS + 0.1% Pluronic,136.43
same,FL1 GeoMean fluorescence,E. coli [3]; buffer PBS,30.25
same,FL1 GeoMean fluorescence,E. coli [3]; [17],11.52
same,FL1 GeoMean fluorescence,E. coli [3]; buffer Sodium chloride,12.43
same,time for fluorescence signal to stabilize,S. aureus [4],≤ 10 min
same,time the fluorescence signal was stable,S. aureus [4],at least one
same,optimal concentration for staining,B. subtilis [5],about 500 nM
same,concentration found to work well for staining,S. aureus [6],50 to 100 nM
same,"fluorescence signal of stain, E. coli",E. coli [2]; [16],85.33
same,Fluorescence,"S. aureus [7]; CCCP No, Fixation agent Ethanol",135
same,Fluorescence,"S. aureus [7]; CCCP No, Fixation agent Formaldehyde",936
same,Fluorescence,"S. aureus [7]; CCCP No, Fixation agent None",1720
same,Fluorescence,"S. aureus [7]; CCCP Yes (10 μM), Fixation agent Ethanol",53
same,Fluorescence,"S. aureus [7]; CCCP Yes (10 μM), Fixation agent Formaldehyde",274
same,Fluorescence,"S. aureus [7]; CCCP Yes (10 μM), Fixation agent None",110
same,FL1 GeoMean fluorescence,K. pneumoniae [8]; buffer HBSS,19.9
same,FL1 GeoMean fluorescence,K. pneumoniae [8]; buffer PBS + 1 mM EDTA,48.67
same,FL1 GeoMean fluorescence,K. pneumoniae [8]; buffer PBS + 0.01% Tween-20,29
same,FL1 GeoMean fluorescence,K. pneumoniae [8]; buffer PBS + 0.1% Pluronic,78.1
same,FL1 GeoMean fluorescence,K. pneumoniae [8]; buffer PBS,17.91
same,FL1 GeoMean fluorescence,K. pneumoniae [8]; [17],9.7
same,FL1 GeoMean fluorescence,K. pneumoniae [8]; buffer Sodium chloride,9.16
same,FL1 GeoMean fluorescence,S. aureus [9]; buffer HBSS,2168.52
same,FL1 GeoMean fluorescence,S. aureus [9]; buffer PBS + 1 mM EDTA,1583.19
same,FL1 GeoMean fluorescence,S. aureus [9]; buffer PBS + 0.01% Tween-20,2909.97
same,FL1 GeoMean fluorescence,S. aureus [9]; buffer PBS + 0.1% Pluronic,1685.21
same,FL1 GeoMean fluorescence,S. aureus [9]; buffer PBS,1976.41
same,FL1 GeoMean fluorescence,S. aureus [9]; [17],2183.44
same,FL1 GeoMean fluorescence,S. aureus [9]; buffer Sodium chloride,2171.61
same,FL1 GeoMean fluorescence,B. subtilis [10]; buffer HBSS,902.22
same,FL1 GeoMean fluorescence,B. subtilis [10]; buffer PBS + 1 mM EDTA,57.75
same,FL1 GeoMean fluorescence,B. subtilis [10]; buffer PBS + 0.01% Tween-20,844.66
same,FL1 GeoMean fluorescence,B. subtilis [10]; buffer PBS + 0.1% Pluronic,470.35
same,FL1 GeoMean fluorescence,B. subtilis [10]; buffer PBS,902.15
same,FL1 GeoMean fluorescence,B. subtilis [10]; [17],943.79
same,FL1 GeoMean fluorescence,B. subtilis [10]; buffer Sodium chloride,951.93
same,time for fluorescence signal to stabilize,B. subtilis [11],≤ 10 min
same,time the fluorescence signal was stable,B. subtilis [11],at least one
same,preferred concentration for staining,E. coli [12],about 1 uM
same,preferred concentration for staining,K. pneumoniae [13],about 1 uM
same,proliferation of S. aureus,S. aureus [14],prevented proliferation
CC1=C(C)C(=O)C(N2CCN(C(=O)CCCN(C)C3=C/C(=C\c4sc5ccccc5[n+]4C)C=CN3c3ccccc3)CC2)=C(C)C1=O [Compound 19],"fluorescence signal of stain, S. aureus",S. aureus [1]; stain compound (19),248.1
same,"fluorescence signal of stain, E. coli",E. coli [2]; stain compound (19),59.78
CC1=C(NCCCN(C)C2=C/C(=C\c3sc4ccccc4[n+]3C)c3ccccc3N2c2ccccc2)C(=O)c2ccccc2C1=O [Compound 22],"fluorescence signal of stain, S. aureus",S. aureus [1]; stain compound (22),594.12
same,"fluorescence signal of stain, E. coli",E. coli [2]; stain compound (22),90.91
CC1=C(C)C(=O)C(N(C)CCCN(C)C2=C/C(=C\c3sc4ccccc4[n+]3C)c3ccccc3N2c2ccccc2)=C(C)C1=O [Compound 24],"fluorescence signal of stain, S. aureus",S. aureus [1]; stain compound (24),853.47
same,"fluorescence signal of stain, E. coli",E. coli [2]; stain compound (24),114.71
"C=C(C)[C@H]1Cc2c(ccc3c2O[C@@H]2COc4cc(OC)c(OC)cc4[C@@H]2C3=O)O1 [Rotenone, rotenone]","fluorescence signal after inhibitor treatment, S. aureus",S. aureus [1]; [15],32.75
same,"fluorescence signal after inhibitor treatment, S. aureus",S. aureus [1]; stained with compound (19),8.19
same,"fluorescence signal after inhibitor treatment, S. aureus",S. aureus [1]; stained with compound (22),11.74
same,"fluorescence signal after inhibitor treatment, S. aureus",S. aureus [1]; stained with compound (24),17.17
same,"fluorescence signal after inhibitor treatment, E. coli",E. coli [2]; [15],24.05
same,"fluorescence signal after inhibitor treatment, E. coli",E. coli [2]; stained with compound (19),20.56
same,"fluorescence signal after inhibitor treatment, E. coli",E. coli [2]; stained with compound (22),38.81
same,"fluorescence signal after inhibitor treatment, E. coli",E. coli [2]; stained with compound (24),44.66
antimycin A,"fluorescence signal after inhibitor treatment, S. aureus",S. aureus [1]; [15],59.41
same,"fluorescence signal after inhibitor treatment, S. aureus",S. aureus [1]; stained with compound (19),4.1
same,"fluorescence signal after inhibitor treatment, S. aureus",S. aureus [1]; stained with compound (22),6.16
same,"fluorescence signal after inhibitor treatment, S. aureus",S. aureus [1]; stained with compound (24),6.56
same,"fluorescence signal after inhibitor treatment, E. coli",E. coli [2]; [15],34.65
same,"fluorescence signal after inhibitor treatment, E. coli",E. coli [2]; stained with compound (19),12.4
same,"fluorescence signal after inhibitor treatment, E. coli",E. coli [2]; stained with compound (22),20.17
same,"fluorescence signal after inhibitor treatment, E. coli",E. coli [2]; stained with compound (24),26.28
